Key:
[1] = target: Cannabinoid receptor (Rattus norvegicus, UniProt Q9QZN9+P20272); experiment: Compound was evaluated for the inhibition of [3H]WIN-55212-2 binding in rat cerebellum membranes; format: cell membranes, Membrane
[2] = species on record: Mus musculus; experiment: In vitro inhibition of electrically induced contractions in isolated mouse vas deferens (MVD) preparations.; format: functional
[3] = target: T1, Cannabinoid receptor (Rattus norvegicus) (UniProt Q9QZN9+P20272); experiment: Compound was evaluated for the inhibition of [3H]WIN-55212-2 binding in rat cerebellum membranes at the concentration 1000 nM; format: cell membranes; conditions: Membrane
[4] = target: T1, Cannabinoid receptor (Rattus norvegicus); experiment: Compound was evaluated for the inhibition of [3H]WIN-55212-2 binding in rat cerebellum membranes at the concentration 3000 nM; format: cell membranes; conditions: Membrane

T1 sequence (P20272 whole entry, looked up): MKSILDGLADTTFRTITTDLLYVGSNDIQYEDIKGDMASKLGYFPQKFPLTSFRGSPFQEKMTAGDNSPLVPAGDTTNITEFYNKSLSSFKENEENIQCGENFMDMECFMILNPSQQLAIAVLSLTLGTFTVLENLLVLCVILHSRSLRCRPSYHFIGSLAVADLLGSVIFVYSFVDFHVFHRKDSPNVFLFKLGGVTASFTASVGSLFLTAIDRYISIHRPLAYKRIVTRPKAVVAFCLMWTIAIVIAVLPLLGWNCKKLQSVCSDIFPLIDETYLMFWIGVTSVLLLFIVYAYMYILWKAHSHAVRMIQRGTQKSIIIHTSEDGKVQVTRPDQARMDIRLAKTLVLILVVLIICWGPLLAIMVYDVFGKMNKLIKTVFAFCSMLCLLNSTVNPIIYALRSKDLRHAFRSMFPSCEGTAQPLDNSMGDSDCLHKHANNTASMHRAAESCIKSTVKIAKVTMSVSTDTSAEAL
T1 sequence (Q9QZN9 whole entry, looked up): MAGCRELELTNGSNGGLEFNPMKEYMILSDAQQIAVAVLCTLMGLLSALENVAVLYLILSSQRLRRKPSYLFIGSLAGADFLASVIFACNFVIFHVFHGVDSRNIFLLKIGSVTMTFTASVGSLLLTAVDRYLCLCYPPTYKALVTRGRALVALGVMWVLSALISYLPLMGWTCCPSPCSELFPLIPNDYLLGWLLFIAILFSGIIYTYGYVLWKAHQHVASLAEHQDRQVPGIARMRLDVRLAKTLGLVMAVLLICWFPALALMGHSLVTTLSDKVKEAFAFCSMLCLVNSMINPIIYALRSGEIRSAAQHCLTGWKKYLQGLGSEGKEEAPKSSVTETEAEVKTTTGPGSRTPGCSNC

Structure (SMILES): COc1ccc(C(=O)c2cn(CC3CCCCN3C)c3ccccc23)cc1 (centres undefined)
- IC50 [1]: 9.7 nM
- IC50 [2]: 2.6 nM

Structure (SMILES): COc1ccc(C(=O)c2c(C)n(CC3CCCN3)c3ccccc23)cc1 (centres undefined)
- IC50 [2]: 220 nM

Structure (SMILES): COc1ccc(C(=O)c2cn(CC3CCCN3C)c3ccccc23)cc1 (centres undefined)
- IC50 [2]: 8 nM

Structure (SMILES): COc1ccc(C(=O)c2c(C)n(CC3CSCCN3C)c3ccccc23)cc1 (centres undefined)
- inhibition [3]: 40%
- IC50 [2]: 1150 nM

Structure (SMILES): O=C(c1cccc2ccccc12)c1cn(CCN2CCOCC2)c2ccccc12
- IC50 [1]: 7.8 nM

Structure (SMILES): CN1CCCCC1Cn1cc(C(=O)c2cccc3ccccc23)c2ccccc21 (centres undefined)
- IC50 [1]: 1.22 nM
- IC50 [2]: 0.47 nM

Structure (SMILES): COc1ccc(C(=O)c2c(C)n(C3CCN(C)CC3)c3ccccc23)cc1
- IC50 [2]: > 10000 nM

Structure (SMILES): CN1CCN(C)C(Cn2cc(C(=O)c3cccc4ccccc34)c3ccccc32)C1 (centres undefined)
- IC50 [1]: 51 nM
- IC50 [2]: 15 nM

Structure (SMILES): COc1ccc(C(=O)c2c(C)n(CC3CCCN(C)C3)c3ccccc23)cc1 (centres undefined)
- IC50 [2]: > 10000 nM

Structure (SMILES): CN1CCOCC1Cn1cc(C(=O)c2cccc3ccccc23)c2ccccc21 (centres undefined)
- IC50 [1]: 3 nM
- IC50 [2]: 0.4 nM

Structure (SMILES): COc1ccc(C(=O)c2c(C)n(CC3CCCN3C)c3ccccc23)cc1 (centres undefined)
- inhibition [3]: 53%
- IC50 [2]: 63 nM

Structure (SMILES): COc1ccc(C(=O)c2c(C)n(CC3C[S+]([O-])CCN3C)c3ccccc23)cc1 (centres undefined)
- inhibition [3]: -10%
- IC50 [2]: > 10000 nM

Structure (SMILES): Cc1c(C(=O)c2cccc3ccccc23)c2ccccc2n1CC1CCCN1C (centres undefined)
- IC50 [1]: 6.5 nM
- IC50 [2]: 2.4 nM

Structure (SMILES): COc1ccc(C(=O)c2c(C)n(CC3COCCN3C)c3ccccc23)cc1 (centres undefined)
- inhibition [4]: 43%
- IC50 [2]: 210 nM

Structure (SMILES): O=C(c1cccc2ccccc12)c1cn(CC2CCCCN2)c2ccccc12 (centres undefined)
- IC50 [1]: 6.6 nM
- IC50 [2]: 3 nM

Structure (SMILES): COc1ccc(C(=O)c2c(C)n(CC3CCCCN3C)c3ccccc23)cc1 (centres undefined)
- IC50 [1]: 699 nM
- IC50 [2]: 134 nM

Structure (SMILES): Cc1c(C(=O)c2cccc3ccccc23)c2ccccc2n1CC1CCCCN1C (centres undefined)
- IC50 [1]: 5.4 nM
- IC50 [2]: 1.2 nM

Structure (SMILES): COc1ccc(C(=O)c2c(C)n(C[C@@H]3CCCN3C)c3ccccc23)cc1
- IC50 [1]: 497 nM
- IC50 [2]: 37 nM

Structure (SMILES): COc1ccc(C(=O)c2c(C)n(C3CCCN(C)C3)c3ccccc23)cc1 (centres undefined)
- Inhibition [2]: 80%

Structure (SMILES): COc1ccc(C(=O)c2c(C)n(CC3CN(C)CCO3)c3ccccc23)cc1 (centres undefined)
- IC50 [2]: > 10000 nM

Structure (SMILES): COc1ccc(C(=O)c2c(C)n(CC3CN(C)CCN3C)c3ccccc23)cc1 (centres undefined)
- inhibition [3]: -8%
- IC50 [2]: 1430 nM

Structure (SMILES): COc1ccc(C(=O)c2c(C)n(C[C@H]3CCCN3C)c3ccccc23)cc1
- inhibition [3]: 7%
- Inhibition [2]: 80%

Structure (SMILES): CCN1CCCC1Cn1c(C)c(C(=O)c2ccc(OC)cc2)c2ccccc21 (centres undefined)
- IC50 [2]: > 10000 nM

Structure (SMILES): COc1ccc(C(=O)c2c(C)n(CCC3CCCCN3C)c3ccccc23)cc1 (centres undefined)
- IC50 [2]: > 10000 nM
